From patent publication US4058659A, “6,8-Disubstituted purine derivatives of 9-β-D-ribofuranosyl 3',5'-cyclic phosphate” (ICN Pharmaceuticals, Inc., priority 1975, dated 1977) come the findings set out here.

Counter-ions that a name gives are not always drawn.

For one assay, the system named is phosphodiesterase. The experiment in a line: Phosphodiesterase inhibition. The assay is classed as biochemical.
The next assay concerns protein kinase. The experiment in a line: Protein kinase activation relative to cyclic AMP. The assay is classed as biochemical. The conditions noted are these: compared with cyclic AMP.
The next assay relates to adenyl cyclase. The assay is described as follows: Inhibition of adenyl cyclase function. The assay is classed as biochemical.
For assay [1], the system named is isolated cat papillary muscle. The assay is described as follows: Positive inotropic effect: % change in contractile force in isolated cat papillary muscle. The conditions noted are these: for activation at 1 µg/mL: 1.0 μg/ml; for activation at 3.1 µg/mL: 3.1 μg/ml; for activation at 10 µg/mL: 10.0 μg/ml; for activation at 31 µg/mL: 31.0 μg/ml; for activation at 100 µg/mL: 100 μg/ml; for activation at 310 µg/mL: 310 μg/ml; for positive inotropic effect: statement in words, isolated cat papillary muscle.

The mark [2] stands for this setting: Felis catus, read-out: % change in Contractile Force (CF).

With `CCN(CC)c1ncnc2c1nc(Sc1ccc(Cl)cc1)n2[C@@H]1O[C@@H]2COP(=O)(O)O[C@H]2[C@H]1O` [Compound 35, 8-(p-Chlorophenylthio)-6-(diethylamino)-9-β-D-ribofuranosylpurine 3',5'-Cyclic Phosphate], the inhibition of phosphodiesterase result with phosphodiesterase was “inhibit phosphodiesterase markedly”.

On to `CCCCNc1ncnc2c1nc(SC)n2[C@@H]1O[C@@H]2COP(=O)(O)O[C@H]2[C@H]1O` [Compound 30, 6-n-Butylamino-8-(methylthio)-9-β-D-ribofuranosylpurine 3',5'-Cyclic Phosphate], for which the protein kinase activation entry with protein kinase is reported as “superior to cyclic AMP”.

Regarding `CCN(CC)c1ncnc2c1nc(SCc1ccccc1)n2[C@@H]1O[C@@H]2COP(=O)(O)O[C@H]2[C@H]1O` [Compound 15, 8-(Benzylthio)-6-(diethylamino)-9-β-D-ribofuranosylpurine 3',5'-CyclicPhosphate], the inhibition of phosphodiesterase result in the assay on phosphodiesterase is listed as “inhibit phosphodiesterase markedly”.

Consider `O=P1(O)OC[C@H]2O[C@@H](n3c(SCc4ccccc4)nc4c(SCc5ccccc5)ncnc43)[C@H](O)[C@@H]2O1` [Compound 14, 6,8-Bis-(benzylthio)-9-D-ribofuranosylpurine 3',5'-Cyclic Phosphate Sodium Salt], for which the inhibition of phosphodiesterase entry in the assay with phosphodiesterase is given as “inhibit phosphodiesterase markedly”.

Take `Nc1nc2c(Cl)ncnc2n1[C@@H]1O[C@@H]2COP(=O)(O)O[C@H]2[C@H]1O` [Compound 4, 8-Amino-6-chloro-9-β-D-ribofuranosylpurine 3',5'-Cyclic Phosphate]: the protein kinase activation entry in the assay on protein kinase was “superior to cyclic AMP”. Further, the inhibition of phosphodiesterase entry with phosphodiesterase is given as “inhibit phosphodiesterase markedly”.

Take `CCN(CC)c1ncnc2c1nc(Cl)n2[C@@H]1O[C@@H]2COP(=O)(O)O[C@H]2[C@H]1O` [Compound 9, 8-Chloro-6-(diethylamino)-9-β-D-ribofuranosylpurine 3',5'-Cyclic Phosphate]: in the assay on protein kinase, the protein kinase activation entry is given as “superior to cyclic AMP”. Also, the inhibition of phosphodiesterase result with phosphodiesterase is reported as “inhibit phosphodiesterase markedly”.

In the case of `CN(C)c1nc(N)nc2c1nc(Cl)n2[C@@H]1O[C@@H]2COP(=O)(O)O[C@H]2[C@H]1O` [Compound 56, 2-Amino-8-chloro-6-dimethylamino-9-β-D-ribofuranosylpurine 3',5'-Cyclic Phosphate], the inhibition of phosphodiesterase result in the assay with phosphodiesterase is given as “inhibit phosphodiesterase markedly”.

On to `CC(=O)O[C@@H]1[C@@H]2OP(=O)(O)OC[C@H]2O[C@H]1n1c(Cl)nc2c(Cl)ncnc21` [Compound 2a, 2'-O-Acetyl-6,8-dichloro-9-β-D-ribofuranosylpurine 3',5'-Cyclic Phosphate Sodium Salt], for which, in the assay on protein kinase, the protein kinase activation result is on record as “superior to cyclic AMP”. Further, the “inhibition of adenyl cyclase function” value in the assay with adenyl cyclase is “inhibit adenyl cyclase function”.

Take `CCCC(=O)O[C@@H]1[C@@H]2OP(=O)(O)OC[C@H]2O[C@H]1n1c(Cl)nc2c(Cl)ncnc21` [Compound 2b, 2'-O-Butyryl-6,8-dichloro-9-β-D-ribofuranosylpurine 3',5'-Cyclic Phosphate Sodium Salt]: the protein kinase activation entry in the assay on protein kinase is “superior to cyclic AMP”. For the same molecule, the “inhibition of adenyl cyclase function” value with adenyl cyclase was “inhibit adenyl cyclase function”.

`O=P1(O)OC[C@H]2O[C@@H](n3c(Sc4ccc(Cl)cc4)nc4c(N5CCCCC5)ncnc43)[C@H](O)[C@@H]2O1` [Compound 34, 8-(p-Chlorophenylthio)-6-piperidino-9-β-D-ribofuranosylpurine 3',5'-Cyclic Phosphate]: in the assay on phosphodiesterase, the inhibition of phosphodiesterase entry is given as “inhibit phosphodiesterase markedly”.

As for `CCCCNc1ncnc2c1nc(SCc1ccccc1)n2[C@@H]1O[C@@H]2COP(=O)(O)O[C@H]2[C@H]1O` [Compound 17, 8-(Benzylthio)-6-(n-butylamino)-9-β-D-ribofuranosylpurine 3',5'-CyclicPhosphate], the inhibition of phosphodiesterase entry in the assay with phosphodiesterase was “inhibit phosphodiesterase markedly”. Moreover, in assay [1] (setting [2]), the activation at 1 µg/mL was determined as 7.5%, the activation at 3.1 µg/mL is 10%, the activation at 10 µg/mL was 19.3% and the activation at 31 µg/mL came out at 24%. For the same molecule, in assay [1] (setting [2]), the activation at 100 µg/mL stood at 30% and the activation at 310 µg/mL was 39%. Besides, the positive inotropic effect result in assay [1] is “exhibit positive inotropic effect”.

As to `O=P1(O)OC[C@H]2O[C@@H](n3c(SCc4ccccc4)nc4c(N5CCCC5)ncnc43)[C@H](O)[C@@H]2O1` [Compound 18, 8-(Benzylthio)-6-pyrrolidino-9-β-D-ribofuranosylpurine 3',5'-Cyclic Phosphate], in the assay on phosphodiesterase, the inhibition of phosphodiesterase result was “inhibit phosphodiesterase markedly”.

On to `CCN(CC)c1nc2c(Cl)ncnc2n1[C@@H]1O[C@@H]2COP(=O)(O)O[C@H]2[C@H]1O` [Compound 10, 6-Chloro-8-(diethylamino)-9-β-D-ribofuranosylpurine 3',5'-Cyclic Phosphate], for which the inhibition of phosphodiesterase result in the assay on phosphodiesterase is reported as “inhibit phosphodiesterase markedly”.

Regarding `Nc1nc2c(S)ncnc2n1[C@@H]1O[C@@H]2COP(=O)(O)O[C@H]2[C@H]1O` [Compound 6, 8-Amino-9-β-D-ribofuranosyl-6-thiopurine 3',5'-Cyclic Phosphate], the inhibition of phosphodiesterase entry with phosphodiesterase is “inhibit phosphodiesterase markedly”.

`CSc1nc2c(NCc3ccccc3)ncnc2n1[C@@H]1O[C@@H]2COP(=O)(O)O[C@H]2[C@H]1O` [Compound 43, 6-(Benzylamino)-8-(methylthio)-9-β-D-ribofuranosylpurine 3',5'-Cyclic Phosphate]: the inhibition of phosphodiesterase entry in the assay with phosphodiesterase was “inhibit phosphodiesterase markedly”.

Regarding `O=P1(O)OC[C@H]2O[C@@H](n3c(Sc4ccc(Cl)cc4)nc4c(Nc5ccccc5)ncnc43)[C@H](O)[C@@H]2O1` [Compound 37, 6-Anilino-8-(p-chlorophenylthio)-9-β-D-ribofuranosylpurine 3',5'-Cylic Phosphate], in assay [1] (setting [2]), the activation at 1 µg/mL turned out to be 2%, the activation at 3.1 µg/mL is 10.3%, the activation at 10 µg/mL turned out to be 31.3% and the activation at 31 µg/mL is 50.2%. In addition, in assay [1] (setting [2]), the activation at 100 µg/mL is 74.5% and the activation at 310 µg/mL was found to be 82.3%. For the same molecule, the positive inotropic effect entry in assay [1] is on record as “exhibit positive inotropic effect”.

As to `CCNc1ncnc2c1nc(SCc1ccccc1)n2[C@@H]1O[C@@H]2COP(=O)(O)O[C@H]2[C@H]1O` [Compound 19, 8-(Benzylthio)-6-(ethylamino)-9-β-D-ribofuranosylpurine 3',5'-Cyclic Phosphate], the inhibition of phosphodiesterase entry in the assay on phosphodiesterase is listed as “inhibit phosphodiesterase markedly”. In assay [1] (setting [2]), the activation at 1 µg/mL is 9%, the activation at 3.1 µg/mL came to 11%, the activation at 10 µg/mL was determined as 17% and the activation at 31 µg/mL amounted to 28%. In assay [1] (setting [2]), the activation at 100 µg/mL was found to be 45% and the activation at 310 µg/mL came to 88%. In addition, the positive inotropic effect result in assay [1] is “exhibit positive inotropic effect”.

In the case of `O=P1(O)OC[C@H]2O[C@@H](n3c(Br)nc4c(NCc5ccccc5)ncnc43)[C@H](O)[C@@H]2O1` [Compound 42, 6-(Benzylamino)-8-bromo-9-β-D-ribofuranosylpurine 3',5'-Cyclic Phosphate], the inhibition of phosphodiesterase entry with phosphodiesterase was “inhibit phosphodiesterase markedly”.

Turning to `O=P1(O)OC[C@H]2O[C@@H](n3c(SCc4ccccc4)nc4c(NCc5ccccc5)ncnc43)[C@H](O)[C@@H]2O1` [Compound 44, 6-(Benzylamino)-8-(benzylthio)-9-β-D-ribofuranosylpurine 3',5'-Cyclic Phosphate], the inhibition of phosphodiesterase entry in the assay with phosphodiesterase is given as “inhibit phosphodiesterase markedly”.

Consider `CN(C)c1ncnc2c1nc(SCc1ccccc1)n2[C@@H]1O[C@@H]2COP(=O)(O)O[C@H]2[C@H]1O` [Compound 24, 8-(Benzylthio)-6-dimethylamino-9-β-D-ribofuranosylpurine 3',5'-Cyclic Phosphate], for which, in assay [1] (setting [2]), the activation at 1 µg/mL worked out at 4%, the activation at 3.1 µg/mL was determined as 9%, the activation at 10 µg/mL is 13% and the activation at 31 µg/mL came to 18%. Besides, in assay [1] (setting [2]), the activation at 100 µg/mL was determined as 45% and the activation at 310 µg/mL came to 118%. Moreover, the positive inotropic effect result in assay [1] is reported as “exhibit positive inotropic effect”.

Take `CC(=O)O[C@@H]1[C@@H]2OP(=O)(O)OC[C@H]2O[C@H]1n1c(SCc2ccccc2)nc2c(Cl)ncnc21` [Compound 13, 2'-o-acetyl-8-(benzylthio)-6-chloro-9-β-D-ribofuranosylpurine 3',5'-Cyclic Phosphate Sodium Salt]: the inhibition of phosphodiesterase result in the assay with phosphodiesterase is “inhibit phosphodiesterase markedly”.

Regarding `CCCCNc1ncnc2c1nc(Sc1ccc(Cl)cc1)n2[C@@H]1O[C@@H]2COP(=O)(O)O[C@H]2[C@H]1O` [Compound 36, 6-n-Butylamino-8-(p-chlorophenylthio)-9-β-D-ribofuranosylpurine 3',5'-Cyclic Phosphate], in assay [1] (setting [2]), the activation at 1 µg/mL is 9.8%, the activation at 3.1 µg/mL is 15%, the activation at 10 µg/mL was 52.7% and the activation at 31 µg/mL worked out at 62.3%. In assay [1] (setting [2]), the activation at 100 µg/mL was found to be 29.4% and the activation at 310 µg/mL is 101%. For the same molecule, the positive inotropic effect entry in assay [1] is reported as “exhibit positive inotropic effect”.

`CCCNc1ncnc2c1nc(SCc1ccccc1)n2[C@@H]1O[C@@H]2COP(=O)(O)O[C@H]2[C@H]1O` [Compound 20, 8-(Benzylthio)-6-n-propylamino-9-β-D-ribofuranosylpurine 3',5'-Cyclic Phosphate]: in assay [1] (setting [2]), the activation at 310 µg/mL came out at 30%. In addition, the activation at 500 µg/mL in assay [1] (Felis catus, 500 μg/ml, read-out: % change in Contractile Force (CF)) was 50%. Moreover, in assay [1], the positive inotropic effect result was “exhibit positive inotropic effect”.
